Read-outs that look alike come from different tables or passages of the source.
Key:
[1] = test system: E. coli K12 ATCC 25404; experiment: Continuous culture (chemostat) biomass yield; type: cell-based, Escherichia coli; settings: for inhibition of growth at 5 ppm / inhibition of growth at 2 ppm / inhibition of growth at 1 ppm: Escherichia coli, read-out: % From Control
Description: Biomass determinations were by Millipore Filtration using Millipore type H.A. 0.45 µ filters. Samples were centrifuged @ 15,000 x for 10 min., supernatant was filtered through a dried and preweighed filter. The centrifuged pellet was then vortexed in 2 mL of D.I. water and filtered also. Samples were then dried overnight @ 105°C and re-weighed. Biomass was the weight of the dried filter less the tared filter weight.
Glucose determinations were carried out on the centrifuged reactor sample supernatants using glucose enzymatic assay (hexokinase and glucose 6-phosphate dehydrogenase) UV-15 Sigma Chemical Co., St. Louis, MO. (Assay set-up pamphlet accompanies kit). Spectrophotometric measurements were run on a Zeiss PM-6 Spektralphotometer, Carl Zeiss, 7082 Oberkochen, West Germany.
Continuous culture medium was composed of 5 g/1 glucose, 40 mL/1 25 X VBE, and 2.5 mL/1 trace mixture. Bulk medium composed of deionized H20 plus 25X VBE was steam sterilized for 45 min. @ 121°C. Trace mix was autoclaved separately and added aseptically. Glucose was filter sterilized and added last (aseptically).
Bioflo Model C32 Chemostat units (bioreactors) , New Brunswick Scientific, Edison NJ, with a working volume of 1400 mL were utilized for the continuous culture experimentation. pH control on the systems was maintained by Model 5997-20 Horizon pH Controllers. Ingold Sterilizable pH Electrodes, Type 465-35-K9, Andover, MA, were sterilized in place before each run. pH adjustment was by controller addition of sterile 2N NaOH upon demand.
Sterile chemostats vessels were filled to working volume with media seeded with 10 mL of 48 hr. E. coli K12 ATCC 25404 culture grown up overnight in nutrient broth (BBL, Cockeysville, MD) @ 37°C. Reactors were run for 72 hours in the batch mode @ 37°C, and then put into continuous flow. The reactors were run for a minimum of five reactor turnovers before initial sampling to insure a steady state. Sampling was then conducted at a maximum of once/reactor turnover, with a minimum number of 11 reactor turnovers per chemostat run. Both control and BNS containing chemostats were stripped, cleaned and the E. coli culture reestablished (as above) each time before either the BNS concentration or the dilution rate was increased. Eleven reactor turnovers is equivalent to 3.5 days at the highest dilution rate used (minimum time for a chemostat run). Uncoupler Addition to Continuous Culture
BNS stock was composed of 10% BNS, 5% Triton X-114 and 85% carbitol acetate. BNS was diluted in deionized water to the appropriate 10X concentration desired. Breakdown kinetics were measured in a deionized H20/BNS system by spectrophotometric measurement at 320 nm and a BNS half life was determined to be 7 hours. Continuous and separate pumping of uncoupler was by a Masterflex 7552-10 peristalic pump (Cole Parmer, Chicago, IL) through silicon tubing lines into the bioreactor. Feed flow was split 90% organic feed, 10% BNS feed for total flow. New uncoupler feed was made up daily from the previously mentioned stock, since there was only 10% of the original BNS concentration left before the new daily solution of BNS feed was begun. BNS dose of 1, 2 and 5 ppm was based on the total bulk feed. Reservoir solutions were mixed constantly on a Fisher versamix magnetic stir plate at a speed of 0.4/1.0 to prevent settling out of chemical.
Chemostat system parameters were set at pH - 7.0, temper, ature 37°C, aeration 2.0 standard litres per minute (SLPM) and agitation at 300 rpm for all experimentation.
Daily checks were made on system for pH, media flow, NaOH consumption, BNS flow, temperature; agitation speed and aeration rate. Mixed liquor glucose and gravimetric biomass determinations were performed at least 5 times per week. Periodic checks were also made on the organic strength of the influent medium, depending on the frequency of new media make-up.

[2] = test system: Klebsiella pneumoniae; experiment: microbe, parasite or virus in culture; type: cell-based
Description: The first series of experiments involved the measurement of the amount of C02 evolved from aerobically growing cultures of the representative organism Klebsiella in the presence and absence of uncoupling agents. The known uncouplers 2, 4 dinitrophenol (DNP) and carbonyl cyanide m-chlorophenyl hydrazone (CCCP) were tested along with bis (tricholoromethyl) sulfone (TCMS) and beta-bromo-beta-nitrostyrene (BNS). It can be seen from the data that CCCP caused large increases in C02 evolution over the untreated controls at all concentrations used, with the largest increase (29%) at 5 µg/mL (24.4 uM). […] Bacterial counts also reflected the lack of uncoupling activity. […] Largest increase in C02 blowoff came at 50 ppm (32%). BNS gave a mixed pattern as opposed to those of DNP and CCCP. […] Even at 10 µg/mL, the bacterial count was reduced ~ 50% while still giving greater C02 blowoff than control cultures.
The procedure utilized to perform the first series of experiments was as follows: • Sealed vials containing 8 mL of minimal salts medium (Composition: K2HPO4-39, KH2PO4-lg, MgSO4-0.2g, (NN4)2SO4^-1g, D-glucose-5g (optional) in 1 liter. Autoclave and adjust pH to 6.8) lacking any carbon source were each injected with 1 mL of a suspension of Klebsiella pneumoniae. (Klebsiella was grown overnight, shaken at 37°C, in minimal salts medium containing glucose to a heavy cell suspension. The cells were centrifuged at 10,000 g and resuspended to a turbidity of 150 Klett units [Klett-Summerson photometer, #42 blue filter) in minimal salts medium [MSM], no glucose. These cells were again centrifuged, and resuspended in MSM at 1/10 the volume used previously. This 10X cell suspension was used as the standard inoculum for the vials.) The vials were- simultaneously injected with 1 mL of a 1 µ Ci/mL solution of ^14C-U-D glucose and the appropriate concentration of material to be tested. The compounds tested were fed at concentrations of […]. Controls received no test material and all vials were shaken during the course of the experiments at 37°C. Vials were read for C02 blowoff at the times indicated on the appropriate Tables. Standard bacterial counts were done on each vial after the end of each experimental series. [formula] [formula] [formula] [formula]

Compound: O=[N+]([O-])C(Br)=Cc1ccccc1 [BNS, beta-bromo-beta-nitrostyrene]
- Biomass Yield ([1]; 1.0 ppm BNS, Dilution Rate 0.068 hr.^-1): 0.268 g cells/g substrate
- Biomass Yield ([1]; 1.0 ppm BNS, Dilution Rate 0.086 hr.^-1): 0.276 g cells/g substrate
- Biomass Yield ([1]; 1.0 ppm BNS, Dilution Rate 0.132 hr.^-1): 0.324 g cells/g substrate
- Biomass Yield ([1]; 2.0 ppm BNS, Dilution Rate 0.066 hr.^-1): 0.273 g cells/g substrate
- Biomass Yield ([1]; 2.0 ppm BNS, Dilution Rate 0.090 hr.^-1): 0.241 g cells/g substrate
- Biomass Yield ([1]; 2.0 ppm BNS, Dilution Rate 0.130 hr.^-1): 0.275 g cells/g substrate
- Biomass Yield ([1]; 5.0 ppm BNS, Dilution Rate 0.070 hr.^-1): 0.287 g cells/g substrate
- Biomass Yield ([1]; 5.0 ppm BNS, Dilution Rate 0.090 hr.^-1): 0.237 g cells/g substrate
- Biomass Yield ([1]; 5.0 ppm BNS, Dilution Rate 0.131 hr.^-1): 0.298 g cells/g substrate
- inhibition of growth at 5 ppm ([1]; ATCC25404, 0.07 h, 5.0 ppm BNS, Dilution Rate 0.070 hr.^-1): 9.5%
- inhibition of growth at 2 ppm ([1]; ATCC25404, 0.09 h, 2.0 ppm BNS, Dilution Rate 0.090 hr.^-1): 26.1%
- inhibition of growth at 5 ppm ([1]; ATCC25404, 0.09 h, 5.0 ppm BNS, Dilution Rate 0.090 hr.^-1): 27.3%
- inhibition of growth at 2 ppm ([1]; ATCC25404, 0.13 h, 2.0 ppm BNS, Dilution Rate 0.130 hr.^-1): 18.3%
- inhibition of growth at 1 ppm ([1]; ATCC25404, 1.0 ppm BNS, Dilution Rate 0.068 hr.^-1): 15.2%
- inhibition of growth at 1 ppm ([1]; ATCC25404, 1.0 ppm BNS, Dilution Rate 0.086 hr.^-1): 15%
- inhibition of growth at 1 ppm ([1]; ATCC25404, 1.0 ppm BNS, Dilution Rate 0.132 hr.^-1): 3.9%
- inhibition of growth at 2 ppm ([1]; ATCC25404, 2.0 ppm BNS, Dilution Rate 0.066 hr.^-1): 13.3%
- inhibition of growth at 5 ppm ([1]; ATCC25404, 5.0 ppm BNS, Dilution Rate 0.131 hr.^-1): 11.5%
- concentrations at which toxic properties become evident [2]: > 5000 ng/mL
- activation at 1 µg/mL ([2]; Klebsiella pneumoniae, 1.0 µ/mL, 14C-glucose, read-out: largest increase in C02 blowoff): 13%

From patent EP0162545A2, “Enhanced bioconversion processes” (BETZ EUROPE, INC., priority 1984, dated 1985)
